“Also recorded” adds a separate entry of the source. Like-named read-outs stand apart in the source and are kept apart here. Values belong to the molecule of their own block, whether it stands above or below them.
Experiments:
[1] = Crystal stability on storage at 25° C. and 0%, 52% or 93% RH for 3 days; format: physicochemical; set-up: key to Crystal form (change): No: No change; Yes: Some change
Protocol: Compounds (1a), (1b), and (1c) as well as various salts of Compound (1a) produced in the Examples as described above were stored at 25° C. and at a relative humidity of 0%, 52%, or 93% for 3 days to evaluate change in weight and crystal form. Change in crystal form was measured in the case of fumarate at a low humidity, and in the case of Compound (1a) and its citrate at a high humidity. The salts of Compound (1a) were produced according to the method of Example 3.

[2] = tested on: platelet aggregation induced by collagen; assay: Inhibition of platelet aggregation induced by collagen (general statement); format: cell-based; conditions: species not given
COX-2 = target: T1, COX-2 (Homo sapiens, UniProt P35354); assay: Inhibition of cyclooxygenase-2 (COX inhibitor screening assay kit, PGF2α ELISA); format: biochemical; conditions: for IC50 for COX-2 relative to IC50 of platelet aggregation suppression: ratio COX-2 IC50 / platelet aggregation IC50
T1 sequence (P35354 18-604): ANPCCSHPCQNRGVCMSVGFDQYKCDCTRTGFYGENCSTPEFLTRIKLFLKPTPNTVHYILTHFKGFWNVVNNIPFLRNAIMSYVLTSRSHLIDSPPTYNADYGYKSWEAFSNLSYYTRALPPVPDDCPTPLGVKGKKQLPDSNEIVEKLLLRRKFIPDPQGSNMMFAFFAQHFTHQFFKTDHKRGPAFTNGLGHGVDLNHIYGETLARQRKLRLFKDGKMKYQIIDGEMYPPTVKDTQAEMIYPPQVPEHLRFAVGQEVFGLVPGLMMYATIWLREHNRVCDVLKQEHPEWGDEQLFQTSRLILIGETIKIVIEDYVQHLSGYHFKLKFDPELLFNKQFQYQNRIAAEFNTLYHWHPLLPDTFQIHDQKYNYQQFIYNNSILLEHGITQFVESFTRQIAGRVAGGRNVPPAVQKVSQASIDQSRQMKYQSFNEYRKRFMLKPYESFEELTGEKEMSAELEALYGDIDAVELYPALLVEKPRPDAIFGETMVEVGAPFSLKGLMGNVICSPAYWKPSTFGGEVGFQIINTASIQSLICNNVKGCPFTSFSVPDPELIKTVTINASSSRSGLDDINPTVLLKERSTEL
Protocol: (§1) Screening assay kit for COX inhibitor (Cayman Chemical Company, Catalog Nos. 560101 and 560121) were used to measure inhibitory activity of each compound for COX-1 and COX-2.
(§2) Reaction buffer, heme, arachidonic acid, SnCl2, EIA buffer, wash buffer, prostaglandin (PG) screening EIA standard, PG screening acetylcholinesterase (AchE) tracer ([…]), and PG screening EIA antiserum were prepared before the measurement.
(§3) The reaction solution containing various concentration of the compound of the Examples and COX-1 or COX-2 was allowed to stand at 37° C. for 10 minutes. 10 μL of arachidonic acid was added, and the reaction solution was allowed to stand at 37° C. for 2 minutes. After the reaction, 50 μL of 1N hydrochloric acid was added to cease the reaction, and 100 μL of SnCl2 solution was added, and the reaction solution was allowed to stand at room temperature for 5 minutes.
(§4) 50 μL of an antiserum (rabbit anti-PGF2α antibody) was added to each well of a 96 well plate which had been coated with mouse anti-rabbit IgG, and to each well was added 50 μL of a 2000-fold dilution of the PGF2α producing reaction solution, and then, 50 μL of the AchE tracer. The reaction mixture was allowed to stand at room temperature for 18 hours. The wells were washed 5 times with the wash buffer to remove the excessive AchE tracer, and 200 μL of Ellman reagent was added. After allowing to stand in a dark room for 60 minutes, the absorbance was measured at 405 nm.
(§5) Standard curve was depicted by using PG screening EIA standard, and amount of the PGF2α produced was determined from the absorbance.

COX-1 = target: T2, COX-1 (Ovis aries, UniProt P05979); assay: Inhibition of cyclooxygenase-1 (COX inhibitor screening assay kit, PGF2α ELISA); format: biochemical; conditions: for IC50 for COX-1 relative to IC50 of platelet aggregation suppression: ratio COX-1 IC50 / platelet aggregation IC50
T2 sequence (P05979 25-600): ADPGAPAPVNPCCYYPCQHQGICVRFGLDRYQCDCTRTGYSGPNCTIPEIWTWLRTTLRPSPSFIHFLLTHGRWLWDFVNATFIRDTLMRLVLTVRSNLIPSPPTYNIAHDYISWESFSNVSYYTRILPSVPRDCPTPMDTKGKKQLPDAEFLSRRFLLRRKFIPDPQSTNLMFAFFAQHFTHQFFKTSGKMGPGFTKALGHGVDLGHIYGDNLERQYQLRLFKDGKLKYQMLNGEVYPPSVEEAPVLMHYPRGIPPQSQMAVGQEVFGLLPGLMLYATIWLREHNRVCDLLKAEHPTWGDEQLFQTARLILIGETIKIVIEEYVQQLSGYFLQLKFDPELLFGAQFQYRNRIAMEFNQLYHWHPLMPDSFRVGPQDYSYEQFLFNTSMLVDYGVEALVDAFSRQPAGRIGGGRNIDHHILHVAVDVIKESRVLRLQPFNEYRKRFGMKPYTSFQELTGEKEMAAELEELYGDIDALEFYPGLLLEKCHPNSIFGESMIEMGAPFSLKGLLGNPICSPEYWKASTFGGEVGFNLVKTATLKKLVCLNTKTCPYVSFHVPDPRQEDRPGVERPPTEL
Protocol: as §1, §2, §3, §4, §5

[3] = tested on: guinea pig platelet rich plasma (PRP), aggregation induced by collagen; assay: Suppression of collagen-induced platelet aggregation in guinea pig PRP; format: cell-based; conditions: Cavia porcellus
Protocol: (§6) After removing the PRP in the upper layer, the lower layer was further centrifuged at 1600 g for 10 minutes to separate the platelet poor plasma (PPP). 1 μL of the solution of Compound (I) or Comparative Examples 1 to 3 was added to 200 μL of PRP, and the mixture was allowed to stand at 37° C. for 2 minutes. Platelet aggregation was then induced by adding 2 μL of collagen to the mixture. Platelet aggregation rate was measured by using PAM-12C (SSR Engineering).

[4] = tested on: human platelet rich plasma (PRP), aggregation induced by collagen; assay: Suppression of collagen-induced platelet aggregation in human PRP; format: cell-based
Protocol: as §6

[5] = tested on: platelet aggregation induced by collagen in PRP of guinea pig; assay: Evaluation of oral absorption: ex vivo collagen-induced platelet aggregation in PRP of orally dosed guinea pig; conditions: for ex vivo inhibition of the platelet aggregation by the collagen: general statement, no dose given
[6] = Solubility in water, JP1 solution and JP2 solution; format: physicochemical
[7] = Stability under wet heat, dry heat and beam irradiation; format: physicochemical
thrombogenesis [8] = assay: Thrombus model induced by iron chloride; format: in vivo
thrombogenesis [9] = assay: Model of thrombosis induced by high shear stress; format: in vivo
[10] = Safety (general statement)

Crystal form (change) ([1]; 0% RH): No | Weight change (%) ([1]; 0% RH): 0.00% | Crystal form (change) ([1]; 52% RH): No | Weight change (%) ([1]; 52% RH): 0.40% | Crystal form (change) ([1]; 93% RH): No | Weight change (%) ([1]; 93% RH): 0.39%
Molecule: Maleate

Molecule: Citrate
Crystal form (change) ([1]; 0% RH): No | Weight change (%) ([1]; 0% RH): 0.00% | Crystal form (change) ([1]; 52% RH): No | Weight change (%) ([1]; 52% RH): 0.00% | Crystal form (change) ([1]; 93% RH): Yes | Weight change (%) ([1]; 93% RH): 2.45%

Molecule: COc1ccc(-n2nc(C(=O)N3CCN(C)CC3)cc2-c2ccccn2)nn1 [Compound (1a), [1-(6-methoxypyridazine-3-yl)-5-(pyridine-2-yl)-1H-pyrazole 3-yl](4-methylpiperazine-1-yl)methanone]
inhibition of the platelet aggregation induced by collagen [2]: remarkable inhibition | Crystal form (change) ([1]; 0% RH): No^1) | Weight change (%) ([1]; 0% RH): −0.41% | Crystal form (change) ([1]; 52% RH): No | Weight change (%) ([1]; 52% RH): 0.41% | Crystal form (change) ([1]; 93% RH): Yes | Weight change (%) ([1]; 93% RH): 7.99% | IC50 (COX-2): > 50 µM | IC50 for COX-2 relative to IC50 of platelet aggregation suppression (COX-2): 100 fold | IC50 (COX-1): 97 µM | IC50 for COX-1 relative to IC50 of platelet aggregation suppression (COX-1): 100 fold | IC50 [3]: 0.13 µM | IC50 [4]: 1.1 to 1.3 µM | ex vivo inhibition of the platelet aggregation by the collagen [5]: strong ex vivo inhibition | oral absorbability [5]: excellent oral absorption

Crystal form (change) ([1]; 0% RH): Yes^2) | Weight change (%) ([1]; 0% RH): −5.65% | Crystal form (change) ([1]; 52% RH): No | Weight change (%) ([1]; 52% RH): 1.60% | Crystal form (change) ([1]; 93% RH): No | Weight change (%) ([1]; 93% RH): 0.59%
Molecule: Fumarate

Molecule: COc1ccc(-n2nc(C(=O)N3CCN(C)CC3)cc2-c2ccccn2)nn1 [Compound (1c), [1-(6-methoxypyridazine-3-yl)-5-(pyridine-2-yl)-1H-pyrazole-3-yl] (4-methylpiperazine-1-yl)methanone mono-1-tartrate]
inhibition of the platelet aggregation induced by collagen [2]: remarkable inhibition | solubility in water, JP1 solution and JP2 solution [6]: highly soluble | Crystal form (change) ([1]; 0% RH): No | Weight change (%) ([1]; 0% RH): −0.20% | Crystal form (change) ([1]; 52% RH): No | Weight change (%) ([1]; 52% RH): 0.00% | Crystal form (change) ([1]; 93% RH): No | Weight change (%) ([1]; 93% RH): 0.19% | stability under wet heat, dry heat, and beam irradiation [7]: extremely stable

Molecule: COc1ccc(-n2nc(C(=O)N3CCN(C)CC3)cc2-c2ccccn2)nn1.Cl [Compound (1b), [1-(6-Methoxypyridazine-3-yl)-5-(pyridine-2-yl)-1H-pyrazole-3-yl] (4-methylpiperazine-1-yl)methanone Monohydrochloride]
inhibition of the platelet aggregation induced by collagen [2]: remarkable inhibition | solubility in water, JP1 solution and JP2 solution [6]: good solubility | Crystal form (change) ([1]; 0% RH): No | Weight change (%) ([1]; 0% RH): 0.20% | Crystal form (change) ([1]; 52% RH): No | Weight change (%) ([1]; 52% RH): 0.58% | Crystal form (change) ([1]; 93% RH): Yes | Weight change (%) ([1]; 93% RH): 11.54% | IC50 (COX-2): > 100 µM | IC50 for COX-2 relative to IC50 of platelet aggregation suppression (COX-2): 100 fold | IC50 (COX-1): > 100 µM | IC50 for COX-1 relative to IC50 of platelet aggregation suppression (COX-1): 100 fold | IC50 ([4]; Homo sapiens, Platelet): 0.86 µM | suppression of thrombogenesis (thrombogenesis [8]): remarkable suppression | ex vivo inhibition of the platelet aggregation by the collagen [5]: strong ex vivo inhibition | platelet aggregation induced by collagen, ex vivo ([5]; guinea pig, 10 mg/kg oral, 1 hour after administration, collagen 0.8 μg to 2.5 μg): remarkably suppressed | oral absorbability ([5]; Monohydrochloride): excellent oral absorption; also recorded: sufficiently absorbed; also recorded: favorable oral absorbability | inhibition of the thrombogenesis (thrombogenesis [9]): remarkable inhibition | safety [10]: no safety problems

Reference: patent US20090137600A1, “Antiplatelet agent and process for producing the same” (priority 2004, published 2009)
